In patent US5892063A (Hauser, Inc., priority 1997, dated 1999):
Read-outs that look alike come from different tables or passages of the source.

Legend:
MDA-MB-435 = test: SRB growth screen, breast cancer MDA-MB-435; assay type: cell-based
[1] = SRB growth screen, whole cell line panel; assay type: cell-based; conditions: for CC50: Homo sapiens, read-out: Log10 LC50, Mean (converted); for GI50: read-out: Log10 GI50, Mean (converted); for IC (TGI): read-out: Log10 TGI, Mean (converted)
Protocol: The screening assay is performed on 96-well microtitre plates. […] Duplicate wells are prepared for all concentrations; "time-zero" and "nodrug" controls are also provided for each test. […] One hundred microliters of SRB solution (0.4% w/v in 1% acetic acid) is added to each microtitre well and incubated for 10 minutes at room temperature.
The response parameters GI50 and LC50 are interpolated values representing the concentrations at which the percentage growth (PG) is +50 and -50 respectively:
GI50 is the concentration for which the PG=+50.
TGI is the concentration for which PG=0.
LC50 is the concentration for which the PG=-50. […] This is interpreted as cytotoxicity.
The data represented in Table I is graphically represented in FIGS. 1a and 1b through FIGS. 9a and 9b. […] The following is an example of how the information in Table I and in the Figures is interpreted.

M14 = test: SRB growth screen, melanoma M14; conditions: Homo sapiens, M14, 48 h; for CC50: read-out: Log10 LC50 (converted)
U251 = test: SRB growth screen, CNS cancer U251; conditions: Homo sapiens, U-251, 48 h; for CC50: read-out: Log10 LC50 (converted)
UACC-62 = test: SRB growth screen, melanoma UACC-62; conditions: Homo sapiens, UACC-62, 48 h; for CC50: read-out: Log10 LC50 (converted)
KM12 = test: SRB growth screen, colon cancer KM12; conditions: Homo sapiens, KM12, 48 h
MALME-3M = test: SRB growth screen, melanoma MALME-3M; conditions: Homo sapiens, 48 h; for CC50: read-out: Log10 LC50 (converted); for IC (TGI): read-out: Log10 TGI
SK-MEL-2 = test: SRB growth screen, melanoma SK-MEL-2; conditions: Homo sapiens, SK-MEL-2, 48 h; for CC50: read-out: Log10 LC50 (converted)
UACC-257 = test: SRB growth screen, melanoma UACC-257; conditions: Homo sapiens, UACC-257, 48 h; for CC50: read-out: Log10 LC50 (converted); for IC (TGI): read-out: Log10 TGI
A498 = test: SRB growth screen, renal cancer A498; conditions: Homo sapiens, A498, 48 h; for CC50: read-out: Log10 LC50 (converted)
786-0 = test: SRB growth screen, renal cancer 786-0; conditions: Homo sapiens, 786-0, 48 h; for CC50: read-out: Log10 LC50 (converted); for IC (TGI): read-out: Log10 TGI
SN12C = test: SRB growth screen, renal cancer SN12C; conditions: Homo sapiens, 48 h; for CC50: read-out: Log10 LC50 (converted); for IC (TGI): read-out: Log10 TGI
MCF7 = test: SRB growth screen, breast cancer MCF7; conditions: Homo sapiens, MCF7, 48 h; for CC50: read-out: Log10 LC50 (converted)
SW-620 = test: SRB growth screen, colon cancer SW-620; conditions: Homo sapiens, SW-620, 48 h; for CC50: read-out: Log10 LC50 (converted); for IC (TGI): read-out: Log10 TGI
BT-549 = test: SRB growth screen, breast cancer BT-549; conditions: Homo sapiens, BT-549, 48 h; for GI50: read-out: Log10 GI50 (converted); for CC50: read-out: Log10 LC50 (converted); for IC (TGI): read-out: Log10 TGI
HCC-2998 = test: SRB growth screen, colon cancer HCC-2998; conditions: Homo sapiens, HCC 2998, 48 h; for CC50: read-out: Log10 LC50 (converted); for IC (TGI): read-out: Log10 TGI
IGROV1 = test: SRB growth screen, ovarian cancer IGROV1; conditions: Homo sapiens, IGROV-1, 48 h; for CC50: read-out: Log10 LC50 (converted)
OVCAR-4 = test: SRB growth screen, ovarian cancer OVCAR-4; conditions: Homo sapiens, OVCAR-4, 48 h; for GI50: read-out: Log10 GI50 (converted); for CC50: read-out: Log10 LC50 (converted); for IC (TGI): read-out: Log10 TGI
OVCAR-5 = test: SRB growth screen, ovarian cancer OVCAR-5; conditions: Homo sapiens, OVCAR-5, 48 h; for CC50: read-out: Log10 LC50 (converted); for IC (TGI): read-out: Log10 TGI
OVCAR-8 = test: SRB growth screen, ovarian cancer OVCAR-8; conditions: Homo sapiens, OVCAR-8, 48 h; for CC50: read-out: Log10 LC50 (converted)
MCF7/ADR-RES = test: SRB growth screen, breast cancer MCF7/ADR-RES; conditions: Homo sapiens, 48 h; for CC50: read-out: Log10 LC50 (converted); for IC (TGI): read-out: Log10 TGI
NCI-H460 = conditions: Homo sapiens, NCI-H460, 48 h; for CC50: read-out: Log10 LC50 (converted)
[2] = read-out: Log10 GI50 (converted)

Q: For `CC(=O)O[C@H]1C(=O)[C@@]2(C)[C@H]([C@H](OC(=O)c3ccccc3)[C@]3(O)C[C@H](OC(=O)[C@H](O)[C@@H](NC(=O)C4(C)OC4C)c4ccccc4)C(C)=C1C3(C)C)[C@]1(OC(C)=O)CO[C@@H]1C[C@@H]2O` (stereo partly drawn) [Ceph-epoxide, cephalomannine epoxide], which GI50 (MDA-MB-435; Homo sapiens, MDA-MB-435, 48 h; read-out: Log10 GI50 (converted)) is on record?
A: < 10 nM

Q: And the IC (TGI) (MDA-MB-435; Homo sapiens, MDA-MB-435, 48 h; read-out: Log10 TGI)?
A: < 0.01 µM

Q: And the CC50 [1]?
A: 64.6 µM

Q: What about the GI50 ([1]; mean over cell lines) of the same compound?
A: 28.8 nM

Q: What about the IC (TGI) ([1]; mean over cell lines) of the same compound?
A: 5.75 µM

Q: And the GI50 (M14; [2])?
A: < 0.01 µM

Q: What about the CC50 (M14) of the same compound?
A: > 100 µM

Q: And the GI50 (U251; [2])?
A: < 0.01 µM

Q: And the CC50 (U251)?
A: > 100 µM

Q: What about the GI50 (UACC-62; [2]) of the same compound?
A: < 0.01 µM

Q: And the CC50 (UACC-62)?
A: > 100 µM

Q: And the IC (TGI) (UACC-62; read-out: Log10 TGI)?
A: > 100 µM

Q: What about the GI50 (KM12; [2]) of the same compound?
A: < 0.01 µM

Q: What about the CC50 (MALME-3M) of the same compound?
A: > 100 µM

Q: And the IC (TGI) (MALME-3M)?
A: > 100 µM

Q: And the GI50 (SK-MEL-2; [2])?
A: < 0.01 µM

Q: And the CC50 (SK-MEL-2)?
A: > 100 µM

Q: What about the GI50 (UACC-257; [2]) of the same compound?
A: 0.0209 µM

Q: What about the CC50 (UACC-257) of the same compound?
A: > 100 µM

Q: What about the IC (TGI) (UACC-257) of the same compound?
A: > 100 µM

Q: What about the GI50 (A498; [2]) of the same compound?
A: 0.316 µM

Q: What about the CC50 (A498) of the same compound?
A: > 100 µM

Q: And the IC (TGI) (A498; read-out: Log10 TGI)?
A: > 100 µM

Q: What about the CC50 (786-0) of the same compound?
A: > 100 µM

Q: And the IC (TGI) (786-0)?
A: > 100 µM

Q: And the GI50 (SN12C; [2])?
A: < 0.01 µM

Q: And the CC50 (SN12C)?
A: > 100 µM

Q: And the IC (TGI) (SN12C)?
A: > 100 µM

Q: What about the GI50 (MCF7; [2]) of the same compound?
A: < 0.01 µM

Q: And the CC50 (MCF7)?
A: > 100 µM

Q: And the IC (TGI) (MCF7; read-out: Log10 TGI)?
A: > 100 µM

Q: What about the CC50 (SW-620) of the same compound?
A: > 100 µM

Q: What about the IC (TGI) (SW-620) of the same compound?
A: > 100 µM

Q: And the GI50 (BT-549)?
A: 0.01 µM

Q: And the CC50 (BT-549)?
A: < 100 µM

Q: And the IC (TGI) (BT-549)?
A: 0.0977 µM

Q: And the GI50 (HCC-2998; [2])?
A: < 0.01 µM

Q: And the CC50 (HCC-2998)?
A: > 100 µM

Q: And the IC (TGI) (HCC-2998)?
A: 0.0457 µM

Q: And the GI50 (IGROV1; [2])?
A: < 0.01 µM

Q: And the CC50 (IGROV1)?
A: > 100 µM

Q: And the GI50 (OVCAR-4)?
A: 3.89 µM

Q: What about the CC50 (OVCAR-4) of the same compound?
A: > 100 µM

Q: What about the IC (TGI) (OVCAR-4) of the same compound?
A: > 100 µM

Q: What about the GI50 (OVCAR-5; [2]) of the same compound?
A: 0.0275 µM

Q: And the CC50 (OVCAR-5)?
A: > 100 µM

Q: What about the IC (TGI) (OVCAR-5) of the same compound?
A: 4.79 µM

Q: And the CC50 (OVCAR-8)?
A: > 100 µM

Q: And the IC (TGI) (OVCAR-8; read-out: Log10 TGI)?
A: > 100 µM

Q: And the GI50 (MCF7/ADR-RES; [2])?
A: 13.8 µM

Q: And the CC50 (MCF7/ADR-RES)?
A: > 100 µM

Q: What about the IC (TGI) (MCF7/ADR-RES) of the same compound?
A: 61.7 µM

Q: And the GI50 (NCI-H460; [2])?
A: < 0.01 µM

Q: What about the CC50 (NCI-H460) of the same compound?
A: > 100 µM

Q: And the IC (TGI) (NCI-H460; read-out: Log10 TGI)?
A: > 100 µM

Q: Which results are given for `CC(=O)O[C@H]1C(=O)[C@@]2(C)[C@H]([C@H](OC(=O)c3ccccc3)[C@]3(O)C[C@H](OC(=O)[C@H](O)[C@@H](NC(=O)c4ccccc4)c4ccccc4)C(C)=C1C3(C)C)[C@]1(OC(C)=O)CO[C@@H]1C[C@@H]2O` [Paclitaxel, paclitaxel, reference compound]?
A: GI50 (MDA-MB-435; Homo sapiens, MDA-MB-435, 48 h, read-out: Log10 GI50 (converted)): < 0.0001 nM; CC50 ([1]; mean over cell lines): 87.1 µM; GI50 ([1]; mean over cell lines): 0.0708 nM; IC (TGI) ([1]; mean over cell lines): 28.8 µM; CC50 (M14): 74.1 µM; IC (TGI) (M14; read-out: Log10 TGI): 24 µM; CC50 (U251): 70.8 µM; IC (TGI) (U251; read-out: Log10 TGI): 47.9 µM; CC50 (UACC-62): 64.6 µM; CC50 (KM12; read-out: Log10 LC50 (converted)): > 100 µM; IC (TGI) (KM12; read-out: Log10 TGI): 43.7 µM; CC50 (MALME-3M): 77.6 µM; IC (TGI) (MALME-3M): 34.7 µM; CC50 (SK-MEL-2): > 100 µM; CC50 (UACC-257): 93.3 µM; IC (TGI) (UACC-257): 30.2 µM; CC50 (A498): 74.1 µM; CC50 (786-0): > 100 µM; IC (TGI) (786-0): > 100 µM; CC50 (SN12C): > 100 µM; IC (TGI) (SN12C): 91.2 µM; CC50 (MCF7): > 100 µM; CC50 (SW-620): > 100 µM; IC (TGI) (SW-620): > 100 µM; GI50 (BT-549): 0.00049 µM; CC50 (BT-549): > 100 µM; IC (TGI) (BT-549): 0.479 µM; CC50 (HCC-2998): 55 µM; IC (TGI) (HCC-2998): 17 µM; CC50 (IGROV1): > 100 µM; IC (TGI) (IGROV1; read-out: Log10 TGI): 64.6 µM; GI50 (OVCAR-4): 10 µM; CC50 (OVCAR-4): > 100 µM; IC (TGI) (OVCAR-4): 64.6 µM; CC50 (OVCAR-5): > 100 µM; IC (TGI) (OVCAR-5): 12 µM; GI50 (OVCAR-8; [2]): 0.0178 nM; CC50 (OVCAR-8): > 100 µM; CC50 (MCF7/ADR-RES): > 100 µM; IC (TGI) (MCF7/ADR-RES): > 100 µM; CC50 (NCI-H460): > 100 µM
